Assay results as given in patent US4820834A, “Benzodiazepine analogs” (priority 1987, dated 1989).
pIC50: −log10 of the molar value. Where two headings read alike, the source gives them in different places.

How the values were obtained:
[1] = biological target: T1, CCK receptor (pancreas) (Rattus norvegicus, UniProt P30551); assay: CCK Receptor Binding (Pancreas): inhibition of ^125 I-CCK-33 binding; set-up: species or system Male Sprague-Dawley rats; conditions: rat pancreas membranes, ^125 I-CCK-33, 37° C., 30 minutes
T1 construct: The whole pancreas was dissected free of fat tissue and was homogenized; from tissue; host or cells: rat pancreas membranes (Sprague-Dawley)
T1 sequence (P30551 1-444): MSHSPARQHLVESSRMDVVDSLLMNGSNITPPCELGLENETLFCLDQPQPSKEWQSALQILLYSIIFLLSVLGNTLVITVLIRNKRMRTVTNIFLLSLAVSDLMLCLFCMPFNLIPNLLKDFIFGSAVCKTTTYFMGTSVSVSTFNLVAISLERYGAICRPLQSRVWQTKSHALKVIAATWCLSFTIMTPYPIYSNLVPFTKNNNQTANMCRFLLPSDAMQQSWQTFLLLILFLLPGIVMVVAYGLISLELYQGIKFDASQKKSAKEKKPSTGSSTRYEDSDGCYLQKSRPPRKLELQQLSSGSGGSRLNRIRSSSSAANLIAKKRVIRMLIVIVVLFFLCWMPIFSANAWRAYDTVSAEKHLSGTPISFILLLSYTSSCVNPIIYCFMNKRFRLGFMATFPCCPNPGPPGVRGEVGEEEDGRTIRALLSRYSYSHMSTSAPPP
Outline: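 Rat (male Sprague-Dawley) pancreatic membranes in 50 mM Tris HCl pH 7.7 with DTT, bacitracin, PMSF and o-phenanthroline; ^125I-Bolton Hunter-labelled CCK-33 as radioligand. Incubation 30 min at 37° C, separation by centrifugation, pellet gamma-counted; Scatchard analysis by diluting ^125I-CCK-33 with increasing CCK-33.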

[2] = biological target: T2, CCK receptor (brain, cerebral cortex) (Cavia porcellus, UniProt H0VZC5); assay: biochemical; type: binding, Male Hartley guinea pigs; conditions: guinea pig cerebral cortex, ^125 I-CCK-33, 25° C., 2 hours
T2 construct: Cerebral cortex was dissected and used as a receptor source; from tissue; host or cells: guinea pig cerebral cortex membranes (male Hartley)
T2 sequence (H0VZC5 1-426): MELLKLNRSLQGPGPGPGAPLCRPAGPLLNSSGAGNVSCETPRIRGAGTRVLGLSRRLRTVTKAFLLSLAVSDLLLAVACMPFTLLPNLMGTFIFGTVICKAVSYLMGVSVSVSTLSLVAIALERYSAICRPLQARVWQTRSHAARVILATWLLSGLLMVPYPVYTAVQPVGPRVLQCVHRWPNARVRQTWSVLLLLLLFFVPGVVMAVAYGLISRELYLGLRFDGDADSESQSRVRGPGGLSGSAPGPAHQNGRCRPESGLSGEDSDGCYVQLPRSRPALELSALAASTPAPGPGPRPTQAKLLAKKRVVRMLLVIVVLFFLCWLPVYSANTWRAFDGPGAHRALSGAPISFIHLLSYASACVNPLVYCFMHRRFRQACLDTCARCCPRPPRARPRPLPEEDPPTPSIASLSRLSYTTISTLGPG
Outline: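 Guinea pig cerebral cortex homogenate as receptor source, with radiolabeled CCK-33 in HEPES buffer containing MgCl2, bacitracin, EGTA and 0.4% BSA. Incubation 2 h at 25°C; bound ligand pelleted by centrifugation and gamma-counted.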

[3] = biological target: T3, Gastrin receptor (gastric glands) (Cavia porcellus, UniProt H0VZC5); assay: Gastrin Receptor Binding in Guinea Pig Gastric Glands; set-up: species or system guinea pig (male Hartley); conditions: 25° C., 30 minutes
T3 construct: The washed guinea pig gastric glands prepared as above were resuspended; from tissue; host or cells: guinea pig gastric mucosal glands (male Hartley)
T3 sequence (H0VZC5 1-426): T2 sequence (H0VZC5 1-426)

[4] = read-out: IC50 ^125 I-CCK Brain
[5] = ^125 I-gastrin, read-out: IC50 ^125 I-Gastrin Gastric Glands
[6] = IC50 ^125 I-Gastrin Gastric Glands
[7] = read-out: IC50 ^125 I-CCK Pancreas

## COc1cccc(NC(=O)NC2N=C(c3ccccc3)c3cccc(C)c3N(C)C2=O)c1 (stereo not drawn) [Example 290, N-(3-Methoxyphenyl)-N'-(2,3-dihydro-1,9-dimethyl-2-oxo-5-phenyl-1H-1,4-benzodiazepin-3-yl)-urea]
[1]; IC50 ^125 I-CCK Pancreas
  pIC50: 8.70
[2]; [4]
  pIC50: 7.82
[3]; [5]
  pIC50: 8.06

## COc1cccc(NC(=O)NC2N=C(c3ccccc3)c3ccccc3N(CC(=O)N3CCCC3)C2=O)c1 (stereo not drawn) [Example 284, 1-{[3-[(((3-Methoxyphenyl)amino)carbonyl)amino]-2,3-dihydro-2-oxo-5-phenyl-1H-1,4-benzodiazepin-1-yl]acetyl}pyrrolidine]
[1]; IC50 ^125 I-CCK Pancreas
  pIC50: 7.77
[2]; IC50 ^125 I-CCK Brain
  pIC50: 9.47
[3]; [6]
  pIC50: 9.30

## COc1cccc(NC(=O)N[C@H]2N=C(c3ccccc3)c3ccccc3N(C)C2=O)c1 [Example 267, (S)-N-(2,3-Dihydro-1-methyl-2-oxo-5-phenyl-1H-1,4-benzodiazepin-3-yl)-N'-(3-methoxyphenyl)-urea]
[1]; [7]
  pIC50: 8.89
[2]; IC50 ^125 I-CCK Brain
  pIC50: 6.54
[3]; [5]
  pIC50: 6.72

## CN1C(=O)C(C(O)c2ccccc2)N=C(c2ccccc2)c2ccccc21 (racemic) [Example 51, 1,3-Dihydro-3(RS)-(1-hydroxy-1-phenyl)methyl-1-methyl-5-phenyl-2H-1,4-benzodiazepin-2-one]
[1]; IC50 ^125 I-CCK Pancreas
  pIC50: < 4.00
[2]; [4]
  pIC50: 4.49
[3]; [5]
  pIC50: 4.60

## O=C1Nc2ccccc2C(c2ccccc2F)=N[C@@H]1CC1CNc2ccccc21 (stereo partly drawn) [Example 9]
[1]; IC50 ^125 I-CCK Pancreas
  pIC50: 4.97
[2]; IC50 ^125 I-CCK Brain
  pIC50: 4.32
[3]; [5]
  pIC50: 4.11

## CN1C(=O)[C@H](NC(=O)c2ccccc2I)N=C(c2ccccc2F)c2ccccc21 [Example 169, 3(R)-(+)-1,3-Dihydro-5-(2-fluorophenyl)-3-(2-iodobenzoylamino)-1-methyl-2H-1,4-benzodiazepin-2-one]
[1]; [7]
  pIC50: 4.24
[2]; IC50 ^125 I-CCK Brain
  pIC50: 5.42
[3]; [5]
  pIC50: 5.36

## CN1C(=O)[C@@H](NC(=O)c2ccc(C(F)(F)F)cc2)N=C(c2ccccc2)c2ccccc21 [Example 203, (S)-N-(2,3-Dihydro-1-methyl-2-oxo-5-phenyl-1H-1,4-benzodiazepin-3-yl)-4-(trifluoromethyl)-benzamide]
[1]; [7]
  pIC50: 8.89
[2]; IC50 ^125 I-CCK Brain
  pIC50: 5.34
[3]; [5]
  pIC50: 5.21

## COc1cccc(NC(=O)NC2N=C(c3ccc(C)cc3)c3ccccc3N(C)C2=O)c1 (stereo not drawn) [Example 292, N-(3-Methoxyphenyl)-N'-(2,3-dihydro-1-methyl-2-oxo-5-(p-tolyl)-1H-1,4-benzodiazepin-3-yl)-urea]
[1]; IC50 ^125 I-CCK Pancreas
  pIC50: 9.00
[2]; [4]
  pIC50: 8.46
[3]; [5]
  pIC50: 7.94

## O=C(CN1C(=O)C(NC(=O)Nc2ccc(Cl)cc2)N=C(c2ccccc2)c2ccccc21)NCc1ccccc1 (stereo not drawn) [Example 220]
[1]; [7]
  pIC50: 5.62
[2]; [4]
  pIC50: 7.00
[3]; [5]
  pIC50: 6.82

## Cc1ccc(C2=NC(NC(=O)c3cc4ccccc4[nH]3)C(=O)N(C)c3ccccc32)cc1 (stereo not drawn) [Example 291, 3-N-(2,3-Dihydro-1-methyl-2-oxo-5-(p-tolyl)-1H-1,4-benzodiazepin-3-yl)-1H-indole-2-carboxamide]
[1]; IC50 ^125 I-CCK Pancreas
  pIC50: 10.10
[2]; [4]
  pIC50: 6.42
[3]; [5]
  pIC50: 6.15

## O=C1Nc2ccccc2C(c2ccccc2F)=NC1CNc1cncc(Cl)n1 (racemic) [Example 70, 1,3-Dihydro-5-(2'-fluorophenyl)-3-(RS)-(6'-chloropyrazin-2yl)aminomethyl-2H-4-benzodiazepin-2-one]
[1]; IC50 ^125 I-CCK Pancreas
  pIC50: 4.82
[2]; [4]
  pIC50: 4.00
[3]; [5]
  pIC50: 3.70

## O=C(NC1N=C(c2ccccc2F)c2ccccc2NC1=O)c1ccc2ccccc2n1 (racemic) [Example 116]
[1]; IC50 ^125 I-CCK Pancreas
  pIC50: 6.52
[2]; [4]
  pIC50: 4.10
[3]; [5]
  pIC50: < 5.00

## O=C(OC1N=C(c2ccccc2F)c2ccccc2N(C(=O)c2ccc(Cl)cc2)C1=O)c1ccc(Cl)cc1 (racemic) [Example 178, 1-(4-Chlorophenyl)carbonyl-1,3-dihydro-5-(2-fluorophenyl)-3(RS)-(4-chlorophenyl)carbonyloxy-2H-1,4-benzodiazepin-2-one]
[1]; IC50 ^125 I-CCK Pancreas
  pIC50: 5.31
[2]; [4]
  pIC50: < 4.00
[3]; [5]
  pIC50: < 4.00

## COc1cccc(NC(=O)NC2N=C(c3ccccc3)c3ccccc3NC2=O)c1 (stereo not drawn) [Example 275, N-(2,3-Dihydro-2-oxo-5-phenyl-1H-1,4-benzodiazepin-3-yl)-N'-(3-methoxyphenyl)-urea]
[1]; IC50 ^125 I-CCK Pancreas
  pIC50: 7.70
[2]; IC50 ^125 I-CCK Brain
  pIC50: 6.96
[3]; [6]
  pIC50: 6.92

## CN1C(=O)C(C(O)c2cn(C)c3ccccc23)N=C(c2ccccc2)c2ccccc21 (racemic) [Example 50b, 1,3-Dihydro-3(RS)-[1-hydroxy-1-[3-(1-methylindolyl)]]-methyl-1-methyl-5-phenyl-2H-1,4-benzodiazepin-2-one]
[1]; IC50 ^125 I-CCK Pancreas
  pIC50: 4.00
[2]; [4]
  pIC50: 4.40
[3]; [5]
  pIC50: 4.21

## CN1C(=O)[C@H](NC(=O)Nc2cccc(Cl)c2)N=C(c2ccccc2)c2ccccc21 [Example 296, (R)-N-(2,3-Dihydro-1-methyl-2-oxo-5-phenyl-1H-1,4-benzodiazepin-3-yl)-N'-(3-chloroohenyl)-urea]
[1]; [7]
  pIC50: 6.54
[2]; IC50 ^125 I-CCK Brain
  pIC50: 8.12
[3]; [6]
  pIC50: 8.66

## CN1C(=O)C(NC(=O)Nc2ccccc2[N+](=O)[O-])N=C(c2ccccc2)c2ccccc21 (stereo not drawn) [Example 270, N-(2,3-Dihydro-1-methyl-2-oxo-5-phenyl-1H-1,4-benzodiazepin-3-yl)-N'-(2-nitrophenyl)-urea]
[1]; [7]
  pIC50: 8.52
[2]; IC50 ^125 I-CCK Brain
  pIC50: 5.92
[3]; [6]
  pIC50: 6.30

## CN1C(=O)C(NC(=O)NC2CCCCC2)N=C(c2ccccc2)c2ccccc21 (stereo not drawn) [Example 262, N-Cyclohexyl-N'-(2,3-dihydro-1-methyl-2-oxo-5-phenyl-1H-1,4-benzodiazepin-3-yl)-urea]
[1]; [7]
  pIC50: 5.62
[2]; IC50 ^125 I-CCK Brain
  pIC50: 5.52
[3]; [6]
  pIC50: 6.41

## CN1C(=O)C(NC(=O)c2ccsc2)N=C(c2ccccc2F)c2ccccc21 (stereo not drawn) [Example 238, N-(5-(2-Fluorophenyl)-2,3-dihydro-1-methyl-2-oxo-1H-1,4-benzodiazepin-3-yl)-3-thiophenecarboxamide]
[1]; [7]
  pIC50: 7.55
[2]; IC50 ^125 I-CCK Brain
  pIC50: 4.59
[3]; [6]
  pIC50: 4.96

## CN1C(=O)C(NC(=O)c2ccc(Cl)cc2N)N=C(c2ccccc2)c2ccccc21 (stereo not drawn) [Example 196, 3-N-(2,3-Dihydro-1-methyl-2-oxo-5-phenyl-1H-1,4-benzodiazepine-3-yl)-2-amino-4-chlorobenzamide]
[1]; [7]
  pIC50: 9.05
[2]; IC50 ^125 I-CCK Brain
  pIC50: 5.62
[3]; [6]
  pIC50: 5.72

## CN1C(=O)[C@H](NC(=O)c2ccc(C(F)(F)F)cc2)N=C(c2ccccc2)c2ccccc21 [Example 207, (R)-N-(2,3-Dihydro-1-methyl-2-oxo-5-phenyl-1H-1,4-benzodiazepin-3-yl)-4-(trifluoromethyl)-benzamide]
[1]; [7]
  pIC50: 3.94
[2]; IC50 ^125 I-CCK Brain
  pIC50: 5.48
[3]; [5]
  pIC50: 5.38

## CN1C(=O)C(NC(=O)Nc2ccccc2Cl)N=C(c2ccccc2)c2ccccc21 (stereo not drawn) [Example 254, N-(2-Chlorophenyl)-N'-(2,3-dihydro-1-methyl-2-oxo-5-phenyl-1H-1,4-benzodiazepin-3-yl)-urea]
[1]; IC50 ^125 I-CCK Pancreas
  pIC50: 9.05
[2]; [4]
  pIC50: 6.49
[3]; [5]
  pIC50: 6.96

## O=C(NC1N=C(c2ccccc2F)c2ccccc2NC1=O)OCc1ccccc1 (racemic) [Example 175, 1,3-Dihydro-5-(2-fluorophenyl)-3(RS)-benzyloxycarbonylamino-2H-1,4-benzodiazepin-2-one]
[1]; IC50 ^125 I-CCK Pancreas
  pIC50: 6.15
[2]; [4]
  pIC50: 4.82
[3]; [5]
  pIC50: 5.10

## CN1C(=O)C(NC(=O)Nc2cccc(Cl)c2)N=C(c2ccccc2)c2ccccc21 (stereo not drawn) [Example 265, N-(3-Chlorophenyl)-N'-(2,3-dihydro-1-methyl-2-oxo-5-phenyl-1H-1,4-benzodiazepin-3-yl)urea]
[1]; [7]
  pIC50: 8.09
[2]; IC50 ^125 I-CCK Brain
  pIC50: 8.01
[3]; [6]
  pIC50: 8.51
